Measurements taken from ChEMBL document CHEMBL1201862, “PubChem BioAssay data set” (2004).
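48-hour exposure; five concentrations; linearly interpolated endpoints. Here, GI50 denotes the concentration required for 50% inhibition of growth.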 Calls of active or inactive are those of the source. Rule as the data show it: active = GI50 up to about 1.1 µM and inactive = higher.

Tests used:
Experiment in all cases: inhibition of tumour cell growth, NCI panel, 48 h
DLD-1 = test system: DLD-1
DMS-273 = test system: DMS-273
LXFL 529 = test system: LXFL 529
M19-MEL = test system: M19-MEL
RXF 631 = test system: RXF 631
SNB-78 = test system: SNB-78
XF498 = test system: XF498
Hs-578T = test system: Hs-578T
HOP-18 = test system: HOP-18

SMILES	GI50 (DLD-1)	GI50 (DMS-273)	GI50 (LXFL 529)	GI50 (M19-MEL)	GI50 (RXF 631)	GI50 (SNB-78)	GI50 (XF498)	GI50 (Hs-578T)	GI50 (HOP-18)
CC12Nc3ccccc3C1=C(c1ccccc1)CC1C(=O)OC(=O)C12 (stereo unspecified)	> 100 µM (inactive)	> 100 µM (inactive)	> 100 µM (inactive)	> 100 µM (inactive)	> 100 µM (inactive)	> 100 µM (inactive)	> 100 µM (inactive)	–	–
COC(=O)c1ccc(N/C=C(/C#N)c2ccsc2)cc1	13 µM (inactive)	14.8 µM (inactive)	12.8 µM (inactive)	34 µM (inactive)	–	15 µM (inactive)	–	–	–
CCC1(c2ccccc2)C(=O)N=C(c2ccccc2)N1CCc1ccccc1 (stereo unspecified)	–	–	–	–	–	–	–	> 100 µM (inactive)	–
COc1ccc(C(=O)/C(Br)=C/C(=O)O)cc1	12.6 µM (inactive)	9.82 µM (inactive)	–	14.5 µM (inactive)	–	–	4.28 µM (inactive)	–	45.8 µM (inactive)
CC(=O)C(C(=O)C(=O)Nc1cc(Cl)c(Cl)cc1Cl)c1csc(N)n1 (stereo unspecified)	> 100 µM (inactive)	> 100 µM (inactive)	> 100 µM (inactive)	> 100 µM (inactive)	> 100 µM (inactive)	> 100 µM (inactive)	> 100 µM (inactive)	–	–
COc1cc(C2c3cc4c(cc3[C@@H](Nc3cnc5ccccc5c3)C3COC(=O)[C@H]23)OCO4)cc(OC)c1O (stereo partly specified)	1.05 µM (active)	0.047 µM (active)	–	0.422 µM (active)	–	2.69 µM (inactive)	0.474 µM (active)	–	0.34 µM (active)
COc1cccc(C(=O)N[C@@H]2[C@H](O)[C@@H](CO)O[C@H]2n2cnc3c(N)ncnc32)c1	–	–	–	–	–	–	–	> 100 µM (inactive)	–
COc1cc2c(oc(=O)c3c4occc4cc(OC)c23)c2cccc(OCc3ccccc3)c12	> 100 µM (inactive)	38.9 µM (inactive)	64.7 µM (inactive)	61.5 µM (inactive)	–	37.8 µM (inactive)	42 µM (inactive)	–	> 100 µM (inactive)
C=C1C(=O)OC2C1CC1OC2C(C)CCC/C(C)=C\CCC1(C)O (stereo unspecified)	18.7 µM (inactive)	16.2 µM (inactive)	–	10.1 µM (inactive)	–	12.1 µM (inactive)	12 µM (inactive)	–	10.6 µM (inactive)
C[C@]12CC[C@H](O)C=C1CC[C@@H]1[C@@H]2CC[C@]2(C)C(c3ccc(=O)oc3)CC[C@]12O (stereo partly specified)	0.0174 µM (active)	0.0125 µM (active)	–	0.0129 µM (active)	–	0.0163 µM (active)	0.0184 µM (active)	–	0.014 µM (active)
